In article PMC7767381, “Exploring the Anti-Cancer Mechanism of Novel 3,4′-Substituted Diaryl Guanidinium Derivatives” (Pharmaceuticals, 2020):
“Also recorded” adds a separate entry of the source.

System: ERK phosphorylation (MAPK/ERK pathway)
Assay: Western immunoblot of ERK phosphorylation in HL-60 extracts
Assay type: cell-based, human
Details: HL-60, 5 µM, 16 h
Method: Thus, using Western immunoblot analysis of HL-60 extracts, we investigated the expression and phosphorylation levels of ERK (as an indication of ERK activation), which is the downstream effector of the Ras/BRAF signalling pathway (Figure 6).
HL60s were seeded in T25 flasks at 50 × 10^4 cells/mL and cells were treated with either vehicle [0.5% EtOH (v/v)], 1–4, 9 or 52 (5 µM), as well as 1 (10 µM as reported). After 16 h, cells were collected and washed with PBS. Cell pellets were re-suspended in cold cell lysis buffer (radio-immunoprecipitation assay buffer) supplemented with 1% phosphatase inhibitor cocktail 2 and 3 (Sigma) and 10% protease inhibitor (Roche). Cells were lysed for 30 min on ice. Protein concentration was then determined by BCA assay. Lysates were boiled with Laemmli sample buffer [Tris-HCL 50 mM (pH 6.7), glycerol 10% (w/v), sodium dodecyl sulphate 2% (w/v), bromophenol blue 0.02% (w/v)] containing DTT […] for 10 min at 90 °C. Moreover, 20 µg of lysates were resolved by sodium dodecyl sulphate polyacrylamide gel electrophoresis (SDS-PAGE) and transferred onto PVDF transfer membrane (EMD Millipore). Membranes were blocked with 5% non-fat milk and probed with primary antibodies for ERK and phospho-ERK (Cell Signalling). Anti-GAPDH was used as a loading control (Calbiochem).
Figure 6 Western immunoblot of HL-60 cell extracts following incubation with compounds 2, 3, 4, 9, 52 and 1 (as a control). HL60 cells were seeded at 2 × 10^5 cells/mL and were treated with either vehicle [0.5% EtOH (v/v)], compounds 52, 2, 9, 3 and 4 (5 µM) or compound 1 (5 and (*) 10 µM, as in reference) for 16 h. Cells were lysed and equal amounts of protein were loaded and separated on 15% SDS-PAGE gels, transferred to PVDF membrane and probed with antibodies against total and phosphorylated ERK. Anti-GAPDH was used as a loading control. Results are representative of 2 independent experiments.
HL-60 cells were seeded in T25 flasks at 50 x10^4 cells/mL and treated with either vehicle [0.5% […]
After 16 hours, cells were […]
collected and washed with PBS. Cell pellets were re-suspended in cold cell lysis buffer (radio-immunoprecipitation assay buffer) supplemented with 1% phosphatase inhibitor cocktail 2 and 3 (Sigma) and 10% protease inhibitor (Roche). Cells were lysed for 30 minutes on ice.
Protein concentration was then determined by BCA assay. Lysates were boiled with laemmli sample buffer [Tris-HCL 50 mM (pH 6.7), glycerol 10% (w/v), sodium dodecyl sulphate 2% (w/v), bromophenol blue 0.02% (w/v)] containing DTT […] for 10 min. at 90 °C. Also 20 µg of lysates were resolved by sodium dodecyl sulphate polyacrylamide gel electrophoresis (SDS - PAGE) and transferred onto PVDF transfer membrane (EMD Millipore). Membranes were blocked with 5% non-fat milk and probed with primary antibodies for ERK and phospho-ERK (Cell Signaling). Anti-GAPDH was used as a loading control (Calbiochem).

| Structure (SMILES) | effect on ERK phosphorylation (Ras/BRAF pathway) |
| --- | --- |
| Cl.Cl.N=C(N)Nc1ccc(Oc2cccc(NC(=N)Nc3ccc(Cl)c(C(F)(F)F)c3)c2)cn1 [Compound 2, 1-(4-Chloro-3-(trifluoromethyl)phenyl)-3-(3-((6-guanidinopyridin-3-yl)oxy)phenyl) guanidine dihydrochloride] | inhibiting ERK phosphorylation; also recorded: abrogates ERK activation |
| Cl.N=C(N)Nc1ccc(Oc2cccc(Nc3ccc(Cl)c(C(F)(F)F)c3)c2)cc1 [Compound 3, 1-(4-(3-((4-Chloro-3-(trifluoromethyl)phenyl)amino)phenoxy)phenyl)guanidine hydrochloride] | do not appear to interfere with the Ras/BRAF signalling pathway; also recorded: do not act in the same way |
| Cl.N=C(N)Nc1ccc(Oc2cccc(Nc3ccc(Cl)c(C(F)(F)F)c3)c2)cn1 [Compound 4, 1-(5-(3-((4-Chloro-3-(trifluoromethyl)phenyl)amino)phenoxy)pyridin-2-yl)guanidine hydrochloride] | do not appear to interfere with the Ras/BRAF signalling pathway; also recorded: do not act in the same way |
